Results taken from patent US12275732B2, “Cyclic compounds as receptor modulating therapeutics and methods and uses thereof” (Bionomics Limited, priority 2018, dated 2025).

Assay: A2B permeability (Papp) in MDCK-MDR1 cell monolayers
Assay type: in vitro ADME
Details: dog, MDCK-MDR1 monolayer, apical to basolateral (A-B), 10 μM test compound, HBSS pH 7.4, duplicate
Description: Permeability Data for Compounds was Collected Using the Following Experimental Procedure:
MDCK-MDR1 cells obtained from the NIH (Rockville, Md., USA) are used between passage numbers 6-30. Cells are seeded onto Millipore Multiscreen Transwell plates at 3.4×10^5 cells/cm2. The cells are cultured in DMEM and media is changed on day 3. On day 4 the permeability study is performed. Cell culture and assay incubations are carried out at 37° C. in an atmosphere of 5% CO2 with a relative humidity of 95%. On the day of the assay, the monolayers are prepared by rinsing both apical and basolateral surfaces twice with Hanks Balanced Salt Solution (HBSS) at the desired pH warmed to 37° C. Cells are then incubated with HBSS at the desired pH in both apical and basolateral compartments for 40 min to stabilise physiological parameters.
The dosing solutions are prepared by diluting test compound with assay buffer to give a final test compound concentration of 10 μM (final DMSO concentration of 1% v/v). The fluorescent integrity marker lucifer yellow is also included in the dosing solution. Analytical standards are prepared from test compound DMSO dilutions and transferred to buffer, maintaining a 1% v/v DMSO concentration.
Typical assay buffer is composed of supplemented HBSS pH 7.4 but a range of other buffers and pH values can be used.
For assessment of A-B permeability, HBSS is removed from the apical compartment and replaced with test compound dosing solution. The apical compartment insert is then placed into a companion plate containing fresh buffer (containing 1% v/v DMSO). For assessment of B-A permeability, HBSS is removed from the companion plate and replaced with test compound dosing solution. Fresh buffer (containing 1% v/v DMSO) is added to the apical compartment insert, which is then placed into the companion plate.
At 60 min the apical compartment inserts and the companion plates are separated and apical and basolateral samples diluted for analysis.
Test compound permeability is assessed in duplicate. Compounds of known permeability characteristics are run as controls on each assay plate.
Test and control compounds are quantified by LC-MS/MS cassette analysis using a 7-point calibration with appropriate dilution of the samples. Cyprotex generic analytical conditions are used. The starting concentration (CO) is determined from the dosing solution and the experimental recovery calculated from CO and both apical and basolateral compartment concentrations.
The integrity of the monolayer throughout the experiment is checked by monitoring lucifer yellow permeation using fluorimetric analysis. Lucifer yellow permeation is high if monolayers have been damaged. If a lucifer yellow Papp value is above a pre-defined threshold in one well, but the derived Papp result for test compound or marker compound in that well is qualitatively similar to that determined in the remaining replicate well (within the lucifer yellow threshold) then, based upon the scientific judgment of the responsible scientist, the cell monolayer may be considered acceptable. If this is not the case, then the result from the affected monolayer is excluded and an n=1 result is reported, or the compound may be retested. If lucifer yellow Papp values are above the threshold in both replicate wells for a test compound, the compound is re-tested. If this re-occurs upon repeat in both wells then toxicity or inherent fluorescence of the test compound is assumed. No further experiments are performed in this instance.
The permeability coefficient (Papp) for each compound is calculated from the following equation: […]
Where dQ/dt is the rate of permeation of the drug across the cells, CO is the donor compartment concentration at time zero and A is the area of the cell monolayer. C0 is obtained from analysis of the dosing solution.

Compound	Papp A→B at 60 min, 10 μM [×10⁻⁶ cm/s]
CCn1cc(C(=O)N2CC3CCC(C2)O3)c(=O)c2cc(OC3Cc4ccccc4C3)nnc21 [Example 63, 8-Ethyl-3-indan-2-yloxy-6-(8-oxa-3-azabicyclo[3.2.1]octane-3-carbonyl)pyrido[2,3-c]pyridazin-5-one]	1.55
CCn1cc(C(=O)N2CCO[C@H](C)C2)c(=O)c2cc(OC3Cc4ccccc4C3)cnc21 [Example 2, 1-Ethyl-6-indan-2-yloxy-3-[(2R)-2-methylmorpholine-4-carbonyl]-1,8-naphthyridin-4-one]	2.56
CCn1cc(C(=O)N2C[C@H]3C[C@@H]2CO3)c(=O)c2cc(OC3Cc4ccccc4C3)cnc21 [Example 17, 1-Ethyl-6-indan-2-yloxy-3-[(1R,4R)-2-oxa-5-azabicyclo[2.2.1]heptane-5-carbonyl]-1,8-naphthyridin-4-one]	0.87
CCn1cc(C(=O)N2CC3COCC(C3)C2)c(=O)c2cc(OC3Cc4ccccc4C3)nnc21 [Example 65, 8-Ethyl-3-indan-2-yloxy-6-(3-oxa-7-azabicyclo[3.3.1]nonane-7-carbonyl)pyrido[2,3-c]pyridazin-5-one]	0.98
CCn1cc(C(=O)N2C[C@H](C)O[C@@H](C)C2)c(=O)c2cc(OC3Cc4ccccc4C3)cnc21 [Example 6, 3-[(2S,6S)-2,6-dimethylmorpholine-4-carbonyl]-1-ethyl-6-indan-2-yloxy-1,8-naphthyridin-4-one]	1.7
CCn1cc(C(=O)N2CCOCC2)c(=O)c2cc(OC3Cc4ccccc4C3)nnc21 [Example 52, 8-Ethyl-3-indan-2-yloxy-6-(morpholine-4-carbonyl)pyrido[2,3-c]pyridazin-5-one]	4.78
CCn1cc(C(=O)N2[C@H](C)COC[C@@H]2C)c(=O)c2cc(OC3Cc4ccccc4C3)cnc21 [Example 10, 3-[(3R,5S)-3,5-dimethylmorpholine-4-carbonyl]-1-ethyl-6-indan-2-yloxy-1,8-naphthyridin-4-one]	1.99
CCn1cc(C(=O)N2CC(C)(C)OC(C)(C)C2)c(=O)c2cc(OC3Cc4ccccc4C3)cnc21 [Example 8, 1-Ethyl-6-indan-2-yloxy-3-(2,2,6,6-tetramethylmorpholine-4-carbonyl)-1,8-naphthyridin-4-one]	2.65
CCn1cc(C(=O)N2C[C@@H](C)O[C@@H](C)C2)c(=O)c2cc(OC3Cc4ccccc4C3)cnc21 [Example 5, 3-[(2R,6S)-2,6-dimethylmorpholine-4-carbonyl]-1-ethyl-6-indan-2-yloxy-1,8-naphthyridin-4-one]	3.41
CCn1cc(C(=O)N2CCOCC2)c(=O)c2cc(OC3Cc4ccccc4C3)cnc21 [Example 1, 1-Ethyl-6-indan-2-yloxy-3-(morpholine-4-carbonyl)-1,8-naphthyridin-4-one]	2.19
CCn1cc(C(=O)N2CC3(CCOCC3)C2)c(=O)c2cc(OC3Cc4ccccc4C3)cnc21 [Example 23, 1-Ethyl-6-indan-2-yloxy-3-(7-oxa-2-azaspiro[3.5]nonane-2-carbonyl)-1,8-naphthyridin-4-one]	1.24
CCn1cc(C(=O)N2C3CCC2COC3)c(=O)c2cc(OC3Cc4ccccc4C3)cnc21 [Example 18, 1-Ethyl-6-indan-2-yloxy-3-(3-oxa-8-azabicyclo[3.2.1]octane-8-carbonyl)-1,8-naphthyridin-4-one]	1.41
CCn1cc(C(=O)N2CCOCC2)c(=O)c2cc(OC3Cc4ccccc4C3)ncc21 [Example 26, 1-Ethyl-6-indan-2-yloxy-3-(morpholine-4-carbonyl)-1,7-naphthyridin-4-one]	1.56
CCn1cc(C(=O)N2[C@H](C)COC[C@H]2C)c(=O)c2cc(OC3Cc4ccccc4C3)cnc21 [Example 11, 3-[(3R,5R)-3,5-dimethylmorpholine-4-carbonyl]-1-ethyl-6-indan-2-yloxy-1,8-naphthyridin-4-one]	3.83
CCn1cc(C(=O)N2C3CCCC2COC3)c(=O)c2cc(OC3Cc4ccccc4C3)cnc21 [Example 20, 1-Ethyl-6-indan-2-yloxy-3-(3-oxa-9-azabicyclo[3.3.1]nonane-9-carbonyl)-1,8-naphthyridin-4-one]	2.01
CCn1cc(C(=O)N2CC3CCC(C2)O3)c(=O)c2cc(OC3Cc4ccccc4C3)cnc21 [Example 19, 1-Ethyl-6-indan-2-yloxy-3-(8-oxa-3-azabicyclo[3.2.1]octane-3-carbonyl)-1,8-naphthyridin-4-one]	1.79
CCn1cc(C(=O)N2C[C@@H](C)O[C@H](C)C2)c(=O)c2cc(OC3Cc4ccccc4C3)cnc21 [Example 7, 3-[(2R,6R)-2,6-dimethylmorpholine-4-carbonyl]-1-ethyl-6-indan-2-yloxy-1,8-naphthyridin-4-one]	1.79
CCn1cc(C(=O)N2C3COCC2C3)c(=O)c2cc(OC3Cc4ccccc4C3)cnc21 [Example 16, 1-Ethyl-6-indan-2-yloxy-3-(3-oxa-6-azabicyclo[3.1.1]heptane-6-carbonyl)-1,8-naphthyridin-4-one]	2.06
CCn1cc(C(=O)N2CCOC(C)(C)C2)c(=O)c2cc(OC3Cc4ccccc4C3)cnc21 [Example 4, 3-(2,2-dimethylmorpholine-4-carbonyl)-1-ethyl-6-indan-2-yloxy-1,8-naphthyridin-4-one]	1.26
